From patent US20260130395A1, “Water Dispersible Botanical Compositions” (Aquila Black Limited, priority 2021, published 2026)

Key:
[1] = Stability of Nanoemulsion Concentrate 3 (α-tocopherol and Vitamin B12 content) by LCMSMS; type: physicochemical; settings: for Stability of α-tocopherol in Nanoemulsion Concentrate 3: average of triplicate
Experimental: At each time period (0, 7, 28, 60, 120, 150 and 180 days), triplicate samples were analysed for content of α-tocopherol and Vitamin B12.
(FIGS. 14 and 15, Table 13). Data reported in Table 13 and plotted in FIGS. 14 and 15 are average values of the triplicate measurements taken.

[2] = Stability of cannabinoid compounds and Vitamin E components in Beverage 2 (AB Red) by LCMSMS; type: physicochemical

## Cc1c(C)c2c(c(C)c1O)CC[C@@](C)(CCC[C@H](C)CCC[C@H](C)CCCC(C)C)O2 [α-Tocopherol]
[1]; Refrigerated (2-4° C.), 0 days
  Stability of α-tocopherol in Nanoemulsion Concentrate 3: 0.25 mg/mL
[1]; Refrigerated (2-4° C.), 7 days
  Stability of α-tocopherol in Nanoemulsion Concentrate 3: 0.25 mg/mL
[1]; Refrigerated (2-4° C.), 28 days
  Stability of α-tocopherol in Nanoemulsion Concentrate 3: 0.23 mg/mL
[1]; Refrigerated (2-4° C.), 60 days
  Stability of α-tocopherol in Nanoemulsion Concentrate 3: 0.26 mg/mL
[1]; Refrigerated (2-4° C.), 120 days
  Stability of α-tocopherol in Nanoemulsion Concentrate 3: 0.26 mg/mL
[1]; Refrigerated (2-4° C.), 150 days
  Stability of α-tocopherol in Nanoemulsion Concentrate 3: 0.23 mg/mL
[1]; Refrigerated (2-4° C.), 180 days
  Stability of α-tocopherol in Nanoemulsion Concentrate 3: 0.27 mg/mL
[1]; Room Temperature (21-25° C.), 0 days
  Stability of α-tocopherol in Nanoemulsion Concentrate 3: 0.25 mg/mL
[1]; Room Temperature (21-25° C.), 7 days
  Stability of α-tocopherol in Nanoemulsion Concentrate 3: 0.21 mg/mL
[1]; Room Temperature (21-25° C.), 28 days
  Stability of α-tocopherol in Nanoemulsion Concentrate 3: 0.22 mg/mL
[1]; Room Temperature (21-25° C.), 60 days
  Stability of α-tocopherol in Nanoemulsion Concentrate 3: 0.23 mg/mL
[1]; Room Temperature (21-25° C.), 120 days
  Stability of α-tocopherol in Nanoemulsion Concentrate 3: 0.20 mg/mL
[1]; Room Temperature (21-25° C.), 150 days
  Stability of α-tocopherol in Nanoemulsion Concentrate 3: 0.21 mg/mL
[1]; Room Temperature (21-25° C.), 180 days
  Stability of α-tocopherol in Nanoemulsion Concentrate 3: 0.17 mg/mL
[1]; after 180 days stored at 21-25° C.
  stability in Nanoemulsion Concentrate 3 (in words): some slight degradation
[1]; stored at 2-4° C., 180 days
  stability in Nanoemulsion Concentrate 3 (in words): high degree of stability
[2]; stored at 8° C., 0 days
  Stability of Vitamin Es in AB Red: 25.3 µg/mL
[2]; stored at 8° C., 1 days
  Stability of Vitamin Es in AB Red: 25.2 µg/mL
[2]; stored at 8° C., 2 days
  Stability of Vitamin Es in AB Red: 24.9 µg/mL
[2]; stored at 8° C., 3 days
  Stability of Vitamin Es in AB Red: 25.3 µg/mL
[2]; stored at 8° C., 5 days
  Stability of Vitamin Es in AB Red: 24.2 µg/mL
[2]; stored at 8° C., 8 days
  Stability of Vitamin Es in AB Red: 23.7 µg/mL
[2]; stored at 8° C., 9 days
  Stability of Vitamin Es in AB Red: 24.6 µg/mL
[2]; stored at 8° C., 10 days
  Stability of Vitamin Es in AB Red: 24.9 µg/mL
[2]; stored at 8° C., 11 days
  Stability of Vitamin Es in AB Red: 23.9 µg/mL
[2]; stored at 8° C., 12 days
  Stability of Vitamin Es in AB Red: 24.4 µg/mL
[2]; stored at 8° C., 15 days
  Stability of Vitamin Es in AB Red: 25.6 µg/mL
[2]; stored at 8° C., 16 days
  Stability of Vitamin Es in AB Red: 24.5 µg/mL
[2]; stored at 8° C., 17 days
  Stability of Vitamin Es in AB Red: 23.6 µg/mL
[2]; stored at 8° C., 18 days
  Stability of Vitamin Es in AB Red: 24.1 µg/mL
[2]; stored at 8° C., 19 days
  Stability of Vitamin Es in AB Red: 24.0 µg/mL
[2]; stored at 8° C., 22 days
  Stability of Vitamin Es in AB Red: 25.0 µg/mL
[2]; stored at 8° C., 23 days
  Stability of Vitamin Es in AB Red: 23.2 µg/mL
[2]; stored at 8° C., 24 days
  Stability of Vitamin Es in AB Red: 24.3 µg/mL
[2]; stored at 8° C., 25 days
  Stability of Vitamin Es in AB Red: 23.6 µg/mL
[2]; stored at 8° C., 26 days
  Stability of Vitamin Es in AB Red: 25.2 µg/mL
[2]; stored at 8° C., 29 days
  Stability of Vitamin Es in AB Red: 23.5 µg/mL
[2]; stored at 8° C., 30 days
  Stability of Vitamin Es in AB Red: 24.2 µg/mL
[2]; stored at 8° C., 60 days
  Stability of Vitamin Es in AB Red: 24.2 µg/mL
[2]; stored at 8° C., 90 days
  Stability of Vitamin Es in AB Red: 23.1 µg/mL
[2]; stored at 8° C., 120 days
  Stability of Vitamin Es in AB Red: 25.2 µg/mL
[2]; stored at 8° C., 150 days
  Stability of Vitamin Es in AB Red: 25.4 µg/mL
[2]; stored at 8° C., 180 days
  Stability of Vitamin Es in AB Red: 23.6 µg/mL
[2]; stored at 8° C., 210 days
  Stability of Vitamin Es in AB Red: 23.5 µg/mL
[2]; stored at 8° C., 240 days
  Stability of Vitamin Es in AB Red: 23.6 µg/mL
[2]; stored at 8° C., 270 days
  Stability of Vitamin Es in AB Red: 23.6 µg/mL
[2]; stored at 8° C., 300 days
  Stability of Vitamin Es in AB Red: 23.1 µg/mL
[2]; stored at 8° C., 330 days
  Stability of Vitamin Es in AB Red: 22.9 µg/mL
[2]; stored at 8° C., 360 days
  Stability of Vitamin Es in AB Red: 22.4 µg/mL
[2]; stored at 8° C., 390 days
  Stability of Vitamin Es in AB Red: 23.1 µg/mL
[2]; stored at 8° C., 420 days
  Stability of Vitamin Es in AB Red: 22.3 µg/mL
[2]; stored at 8° C., 450 days
  Stability of Vitamin Es in AB Red: 22.7 µg/mL
[2]; stored at 8° C., 480 days
  Stability of Vitamin Es in AB Red: 21.8 µg/mL
[2]; stored at 8° C., 510 days
  Stability of Vitamin Es in AB Red: 22.0 µg/mL
[2]; stored at 8° C., 540 days
  Stability of Vitamin Es in AB Red: 21.8 µg/mL
[2]; stored at 8° C., 570 days
  Stability of Vitamin Es in AB Red: 21.5 µg/mL
[2]; stored at 21-25° C., 0 days
  Stability of Vitamin Es in AB Red: 25.3 µg/mL
[2]; stored at 21-25° C., 1 days
  Stability of Vitamin Es in AB Red: 24.4 µg/mL
[2]; stored at 21-25° C., 2 days
  Stability of Vitamin Es in AB Red: 24.1 µg/mL
[2]; stored at 21-25° C., 3 days
  Stability of Vitamin Es in AB Red: 23.8 µg/mL
[2]; stored at 21-25° C., 5 days
  Stability of Vitamin Es in AB Red: 22.9 µg/mL
[2]; stored at 21-25° C., 8 days
  Stability of Vitamin Es in AB Red: 24.5 µg/mL
[2]; stored at 21-25° C., 9 days
  Stability of Vitamin Es in AB Red: 23.3 µg/mL
[2]; stored at 21-25° C., 10 days
  Stability of Vitamin Es in AB Red: 23.0 µg/mL
[2]; stored at 21-25° C., 11 days
  Stability of Vitamin Es in AB Red: 24.4 µg/mL
[2]; stored at 21-25° C., 12 days
  Stability of Vitamin Es in AB Red: 23.4 µg/mL
[2]; stored at 21-25° C., 15 days
  Stability of Vitamin Es in AB Red: 24.8 µg/mL
[2]; stored at 21-25° C., 16 days
  Stability of Vitamin Es in AB Red: 25.1 µg/mL
[2]; stored at 21-25° C., 17 days
  Stability of Vitamin Es in AB Red: 24.4 µg/mL
[2]; stored at 21-25° C., 18 days
  Stability of Vitamin Es in AB Red: 24.9 µg/mL
[2]; stored at 21-25° C., 19 days
  Stability of Vitamin Es in AB Red: 25.4 µg/mL
[2]; stored at 21-25° C., 22 days
  Stability of Vitamin Es in AB Red: 25.4 µg/mL
[2]; stored at 21-25° C., 23 days
  Stability of Vitamin Es in AB Red: 24.6 µg/mL
[2]; stored at 21-25° C., 24 days
  Stability of Vitamin Es in AB Red: 23.5 µg/mL
[2]; stored at 21-25° C., 25 days
  Stability of Vitamin Es in AB Red: 25.5 µg/mL
[2]; stored at 21-25° C., 26 days
  Stability of Vitamin Es in AB Red: 24.3 µg/mL
[2]; stored at 21-25° C., 29 days
  Stability of Vitamin Es in AB Red: 24.4 µg/mL
[2]; stored at 21-25° C., 30 days
  Stability of Vitamin Es in AB Red: 24.6 µg/mL
[2]; stored at 21-25° C., 60 days
  Stability of Vitamin Es in AB Red: 24.4 µg/mL
[2]; stored at 21-25° C., 90 days
  Stability of Vitamin Es in AB Red: 24.3 µg/mL
[2]; stored at 21-25° C., 120 days
  Stability of Vitamin Es in AB Red: 23.7 µg/mL
[2]; stored at 21-25° C., 150 days
  Stability of Vitamin Es in AB Red: 23.4 µg/mL
[2]; stored at 21-25° C., 180 days
  Stability of Vitamin Es in AB Red: 23.3 µg/mL
[2]; stored at 21-25° C., 210 days
  Stability of Vitamin Es in AB Red: 22.7 µg/mL
[2]; stored at 21-25° C., 240 days
  Stability of Vitamin Es in AB Red: 23.1 µg/mL
[2]; stored at 21-25° C., 270 days
  Stability of Vitamin Es in AB Red: 23.1 µg/mL
[2]; stored at 21-25° C., 300 days
  Stability of Vitamin Es in AB Red: 23.5 µg/mL
[2]; stored at 21-25° C., 330 days
  Stability of Vitamin Es in AB Red: 22.6 µg/mL
[2]; stored at 21-25° C., 360 days
  Stability of Vitamin Es in AB Red: 21.9 µg/mL
[2]; stored at 21-25° C., 390 days
  Stability of Vitamin Es in AB Red: 22.7 µg/mL
[2]; stored at 21-25° C., 420 days
  Stability of Vitamin Es in AB Red: 22.5 µg/mL
[2]; stored at 21-25° C., 450 days
  Stability of Vitamin Es in AB Red: 22.3 µg/mL
[2]; stored at 21-25° C., 480 days
  Stability of Vitamin Es in AB Red: 21.6 µg/mL
[2]; stored at 21-25° C., 510 days
  Stability of Vitamin Es in AB Red: 21.4 µg/mL
[2]; stored at 21-25° C., 540 days
  Stability of Vitamin Es in AB Red: 21.0 µg/mL
[2]; stored at 21-25° C., 570 days
  Stability of Vitamin Es in AB Red: 21.4 µg/mL
